These compounds were tested on Magnaporthe grisea (Pyricularia oryzae—PYRIOR) (assay: microbe, parasite or virus in culture). Settings: Pyricularia oryzae, read-out: PYRIOR in vitro Growth Inhibition.
Type: cell-based

Structure (SMILES) | inhibition at 25 ppm [%]
COc1ccnc(C(=O)NC(COC(=O)CCc2ccccc2)C(=O)OC(C)COC(=O)C(C)C)c1OC(C)=O (centres unmarked) [Compound 590] | < 80
CCCCC1(C)CCCC(NC(=O)c2nccc(OC)c2O)C1 (centres unmarked) [Compound 254] | > 80
COc1ccnc(C(=O)Nc2ccccc2Oc2cccc(Cl)c2)c1O [Compound 437] | < 80
COc1ccnc(C(=O)Nc2ccc(Oc3cc(Oc4ccccc4)ncn3)cc2)c1O [Compound 468] | < 80

These compounds were tested on Rhizoctonia solani (RHIZSO) (assay: microbe, parasite or virus in culture). Settings: Rhizoctonia solani, read-out: RHIZSO in vitro Growth Inhibition.
Type: cell-based

Structure (SMILES) | inhibition at 25 ppm [%]
COc1ccnc(C(=O)NC(COC(=O)CCc2ccccc2)C(=O)OC(C)COC(=O)C(C)C)c1OC(C)=O (centres unmarked) [Compound 590] | < 80
CCCCC1(C)CCCC(NC(=O)c2nccc(OC)c2O)C1 (centres unmarked) [Compound 254] | < 80
COc1ccnc(C(=O)Nc2ccccc2Oc2cccc(Cl)c2)c1O [Compound 437] | < 80
COc1ccnc(C(=O)Nc2ccc(Oc3cc(Oc4ccccc4)ncn3)cc2)c1O [Compound 468] | < 80

The compounds below were run on Mycosphaerella graminicola (Septoria tritici—SEPTTR) (assay: In vitro fungal growth inhibition, Mycosphaerella graminicola (SEPTTR)). Settings: Zymoseptoria tritici; 25 ppm in growth medium; read-out: SEPTTR in vitro Growth Inhibition.
Type: cell-based

Structure (SMILES) | inhibition at 25 ppm [%]
CCCCC1(C)CCCC(NC(=O)c2nccc(OC)c2O)C1 (centres unmarked) [Compound 254] | > 80
COc1ccnc(C(=O)Nc2ccccc2Oc2cccc(Cl)c2)c1O [Compound 437] | > 80

Same assay, conditions: Zymoseptoria tritici; 25 ppm in the growth medium; read-out: SEPTTR in vitro Growth Inhibition

Structure (SMILES) | inhibition at 25 ppm [%]
COc1ccnc(C(=O)NC(COC(=O)CCc2ccccc2)C(=O)OC(C)COC(=O)C(C)C)c1OC(C)=O (centres unmarked) [Compound 590] | < 80
COc1ccnc(C(=O)Nc2ccc(Oc3cc(Oc4ccccc4)ncn3)cc2)c1O [Compound 468] | < 80

These compounds were tested on Stagonospora nodorum (Leptosphaeria nodorum—LEPTNO) (assay: In vitro fungal growth inhibition, Stagonospora nodorum (LEPTNO)). Settings: Leptosphaeria; 25 ppm in growth medium; read-out: LEPTNO in vitro Growth Inhibition.
Type: cell-based

Structure (SMILES) | inhibition at 25 ppm [%]
CCCCC1(C)CCCC(NC(=O)c2nccc(OC)c2O)C1 (centres unmarked) [Compound 254] | > 80
COc1ccnc(C(=O)Nc2ccccc2Oc2cccc(Cl)c2)c1O [Compound 437] | < 80

Same assay, conditions: Leptosphaeria; 25 ppm in the growth medium; read-out: LEPTNO in vitro Growth Inhibition

Structure (SMILES) | inhibition at 25 ppm [%]
COc1ccnc(C(=O)NC(COC(=O)CCc2ccccc2)C(=O)OC(C)COC(=O)C(C)C)c1OC(C)=O (centres unmarked) [Compound 590] | < 80
COc1ccnc(C(=O)Nc2ccc(Oc3cc(Oc4ccccc4)ncn3)cc2)c1O [Compound 468] | < 80

These compounds were tested on Ustilago maydis (USTIMA) (assay: microbe, parasite or virus in culture). Settings: Mycosarcoma maydis, read-out: USTIMA in vitro Growth Inhibition.
Type: cell-based

Structure (SMILES) | inhibition at 25 ppm [%]
COc1ccnc(C(=O)NC(COC(=O)CCc2ccccc2)C(=O)OC(C)COC(=O)C(C)C)c1OC(C)=O (centres unmarked) [Compound 590] | < 80
CCCCC1(C)CCCC(NC(=O)c2nccc(OC)c2O)C1 (centres unmarked) [Compound 254] | < 80
COc1ccnc(C(=O)Nc2ccccc2Oc2cccc(Cl)c2)c1O [Compound 437] | < 80
COc1ccnc(C(=O)Nc2ccc(Oc3cc(Oc4ccccc4)ncn3)cc2)c1O [Compound 468] | < 80

These compounds were tested on Phytophthora infestans (PHYTIN) (assay: microbe, parasite or virus in culture). Settings: Phytophthora infestans, read-out: PHYTIN in vitro Growth Inhibition.
Type: cell-based

Structure (SMILES) | inhibition at 25 ppm [%]
COc1ccnc(C(=O)NC(COC(=O)CCc2ccccc2)C(=O)OC(C)COC(=O)C(C)C)c1OC(C)=O (centres unmarked) [Compound 590] | < 80
CCCCC1(C)CCCC(NC(=O)c2nccc(OC)c2O)C1 (centres unmarked) [Compound 254] | > 80
COc1ccnc(C(=O)Nc2ccccc2Oc2cccc(Cl)c2)c1O [Compound 437] | < 80
COc1ccnc(C(=O)Nc2ccc(Oc3cc(Oc4ccccc4)ncn3)cc2)c1O [Compound 468] | < 80

These compounds were tested on Phytophthora infestans—PHYTIN (assay: whole plant or invertebrate). Settings: Phytophthora, in Solanum lycopersicum, 24 h, read-out: PHYTIN in vivo 1 Day Protectant.
Type: in vivo

Structure (SMILES) | pest or weed control at 100 ppm [%]
COc1ccnc(C(=O)NC(COC(=O)CCc2ccccc2)C(=O)OC(C)COC(=O)C(C)C)c1OC(C)=O (centres unmarked) [Compound 590] | < 25
CCCCC1(C)CCCC(NC(=O)c2nccc(OC)c2O)C1 (centres unmarked) [Compound 254] | < 25
COc1ccnc(C(=O)Nc2ccccc2Oc2cccc(Cl)c2)c1O [Compound 437] | 25 to 74
COc1ccnc(C(=O)Nc2ccc(Oc3cc(Oc4ccccc4)ncn3)cc2)c1O [Compound 468] | < 25

What follows are compounds tested on Puccinia recondita—PUCCRT (assay: Brown Rust of Wheat, in vivo whole plant, 24 Hour Protectant). Settings: Puccinia; 100 ppm spray, 24 hour protectant, wheat; control of fungal infection vs untreated plants; read-out: PUCCRT in vivo 1 Day Protectant.

Structure (SMILES) | pest or weed control at 100 ppm [%]
CCCCC1(C)CCCC(NC(=O)c2nccc(OC)c2O)C1 (centres unmarked) [Compound 254] | 25 to 74

Same assay, conditions: Puccinia; 100 ppm spray, wheat, 24 hour protectant; control of fungal infection vs untreated plants; read-out: PUCCRT in vivo 1 Day Protectant

Structure (SMILES) | pest or weed control at 100 ppm [%]
COc1ccnc(C(=O)Nc2ccccc2Oc2cccc(Cl)c2)c1O [Compound 437] | < 25

Same assay, conditions: Puccinia; wheat plants sprayed at 100 ppm, inoculated after 24 hours; control of fungal infection vs untreated plants; read-out: PUCCRT in vivo 1 Day Protectant

Structure (SMILES) | pest or weed control at 100 ppm [%]
COc1ccnc(C(=O)NC(COC(=O)CCc2ccccc2)C(=O)OC(C)COC(=O)C(C)C)c1OC(C)=O (centres unmarked) [Compound 590] | 25 to 74
COc1ccnc(C(=O)Nc2ccc(Oc3cc(Oc4ccccc4)ncn3)cc2)c1O [Compound 468] | < 25

The compounds below were run on Erysiphe graminis—ERYSGT (assay: Powdery Mildew of Wheat, in vivo whole plant, 24 Hour Protectant). Settings: Erysiphe; 100 ppm spray, 24 hour protectant, wheat; control of fungal infection vs untreated plants; read-out: ERYSGT in vivo 1 Day Protectant.

Structure (SMILES) | pest or weed control at 100 ppm [%]
CCCCC1(C)CCCC(NC(=O)c2nccc(OC)c2O)C1 (centres unmarked) [Compound 254] | < 25

Same assay, conditions: Erysiphe; 100 ppm spray, wheat, 24 hour protectant; control of fungal infection vs untreated plants; read-out: ERYSGT in vivo 1 Day Protectant

Structure (SMILES) | pest or weed control at 100 ppm [%]
COc1ccnc(C(=O)Nc2ccccc2Oc2cccc(Cl)c2)c1O [Compound 437] | < 25

Same assay, conditions: Erysiphe; wheat plants sprayed at 100 ppm, inoculated after 24 hours; control of fungal infection vs untreated plants; read-out: ERYSGT in vivo 1 Day Protectant

Structure (SMILES) | pest or weed control at 100 ppm [%]
COc1ccnc(C(=O)NC(COC(=O)CCc2ccccc2)C(=O)OC(C)COC(=O)C(C)C)c1OC(C)=O (centres unmarked) [Compound 590] | < 25
COc1ccnc(C(=O)Nc2ccc(Oc3cc(Oc4ccccc4)ncn3)cc2)c1O [Compound 468] | < 25

These compounds were tested on Septoria tritici—SEPTTR (assay: Leaf Blotch of Wheat, in vivo whole plant, 24 Hour Protectant). Settings: Zymoseptoria tritici, 24 h, 100 ppm spray, 24 hour protectant, wheat; control of fungal infection vs untreated plants; read-out: SEPTTR in vivo 1 Day Protectant.

Structure (SMILES) | pest or weed control at 100 ppm [%]
CCCCC1(C)CCCC(NC(=O)c2nccc(OC)c2O)C1 (centres unmarked) [Compound 254] | 25 to 74

Same assay, conditions: Zymoseptoria tritici, 24 h, 100 ppm spray, wheat, 24 hour protectant; control of fungal infection vs untreated plants; read-out: SEPTTR in vivo 1 Day Protectant

Structure (SMILES) | pest or weed control at 100 ppm [%]
COc1ccnc(C(=O)Nc2ccccc2Oc2cccc(Cl)c2)c1O [Compound 437] | < 25

Same assay, conditions: Zymoseptoria tritici, 24 h, wheat plants sprayed at 100 ppm, inoculated after 24 hours; control of fungal infection vs untreated plants; read-out: SEPTTR in vivo 1 Day Protectant

Structure (SMILES) | pest or weed control at 100 ppm [%]
COc1ccnc(C(=O)NC(COC(=O)CCc2ccccc2)C(=O)OC(C)COC(=O)C(C)C)c1OC(C)=O (centres unmarked) [Compound 590] | 25 to 74
COc1ccnc(C(=O)Nc2ccc(Oc3cc(Oc4ccccc4)ncn3)cc2)c1O [Compound 468] | 25 to 74

These compounds were tested on Leptosphaeria nodorum—LEPTNO (assay: Glume Blotch of Wheat, in vivo whole plant, 24 Hour Protectant). Settings: Leptosphaeria; 100 ppm spray, 24 hour protectant, wheat; control of fungal infection vs untreated plants; read-out: LEPTNO in vivo 1 Day Protectant.

Structure (SMILES) | pest or weed control at 100 ppm [%]
CCCCC1(C)CCCC(NC(=O)c2nccc(OC)c2O)C1 (centres unmarked) [Compound 254] | 25 to 74

Same assay, conditions: Leptosphaeria; 100 ppm spray, wheat, 24 hour protectant; control of fungal infection vs untreated plants; read-out: LEPTNO in vivo 1 Day Protectant

Structure (SMILES) | pest or weed control at 100 ppm [%]
COc1ccnc(C(=O)Nc2ccccc2Oc2cccc(Cl)c2)c1O [Compound 437] | < 25

Same assay, conditions: Leptosphaeria; wheat plants sprayed at 100 ppm, inoculated after 24 hours; control of fungal infection vs untreated plants; read-out: LEPTNO in vivo 1 Day Protectant

Structure (SMILES) | pest or weed control at 100 ppm [%]
COc1ccnc(C(=O)NC(COC(=O)CCc2ccccc2)C(=O)OC(C)COC(=O)C(C)C)c1OC(C)=O (centres unmarked) [Compound 590] | 25 to 74
COc1ccnc(C(=O)Nc2ccc(Oc3cc(Oc4ccccc4)ncn3)cc2)c1O [Compound 468] | < 25

Reference: patent US6706740B2, “Fungicidal heterocyclic aromatic amides and their compositions, methods of use and preparation” (Dow AgroSciences LLC, priority 1999, dated 2004)
